Assays:
MCF7 [1] = experiment: Anticancer activity against human MCF7 cells assessed as cell growth inhibition incubated for 48 hrs by MTT assay; assay type: functional, cell-based; details: MCF7, 48 h
SNB-19 [2] = experiment: Anticancer activity against human SNB-19 cells assessed as reduction in cell growth by SRB assay; assay type: functional, cell-based
TC-32 [3] = experiment: Cytotoxicity against human TC-32 cells assessed as reduction in cell viability; assay type: functional, cell-based
MCF7 [4] = experiment: Cytotoxicity against human MCF7 cells assessed as reduction in cell growth; assay type: functional, cell-based
[5] = Cytotoxicity against human HFF-1 cells assessed as reduction of cell viability incubated for 72 hrs by CCK-8 assay; assay type: toxicity, cell-based
TC-32 [6] = experiment: Cytotoxicity against human TC-32 cells assessed as reduction in cell viability incubated for 48 hrs by CellTiter-Blue reagent based […] assay; assay type: functional; details: TC-32, 48 h
SNB-19 [7] = experiment: Antiproliferative activity against human SNB-19 cells assessed as cell growth inhibition incubated for 72 hrs by WST-1 assay; assay type: functional, cell-based; details: SNB-19, 72 h
T47D [8] = experiment: Antiproliferative activity against human T47D cells assessed as cell growth inhibition after 48 hrs by SRB assay; assay type: functional, cell-based
MKN-28 = experiment: Antiproliferative activity against human MKN-28 cells assessed as reduction in cell viability by MTT assay; assay type: functional, cell-based
MGC-803 = experiment: Antiproliferative activity against human MGC-803 cells assessed as reduction in cell growth by MTT assay; assay type: functional, cell-based
MKN-45 = experiment: Antiproliferative activity against human MKN-45 cells assessed as cell growth inhibition by MTT assay; assay type: functional, cell-based
MCF7 [9] = experiment: Antiproliferative activity against human MCF7 cells assessed as cell growth inhibition by MTT assay; assay type: functional, cell-based
SW1990 = experiment: Anticancer activity against human SW1990 cells assessed as reduction in cell viability incubated for 72 hrs by MTT assay; assay type: functional, cell-based; details: SW1990, 72 h
ASPC1 = experiment: Anticancer activity against human ASPC1 cells assessed as reduction in cell growth incubated for 72 hrs by MTT assay; assay type: functional, cell-based; details: ASPC1, 72 h
[10] = Antioxidant activity assessed as DPPH radical scavenging activity incubated for 30 mins; assay type: functional
SNB-19 [11] = experiment: Anticancer activity against human SNB-19 cells assessed as reduction in cell growth incubated for 48 hrs by SRB assay; assay type: functional, cell-based; details: SNB-19, 48 h
TC-32 [12] = experiment: Anticancer activity against human TC-32 cells assessed as reduction in cell growth incubated for 48 hrs by SRB assay; assay type: functional, cell-based; details: TC-32, 48 h
MDA-MB-231 [13] = experiment: Anticancer activity against human MDA-MB-231 cells assessed as reduction in cell viability measured after 72 hrs by MTT assay; assay type: functional, cell-based; details: MDA-MB-231, 72 h
SNB-19 [14] = experiment: Antiproliferative activity against human SNB-19 cells assessed as reduction in cell proliferation incubated for 72 hrs by WST-1 assay; assay type: functional, cell-based; details: SNB-19, 72 h
TC-32 [15] = experiment: Antiproliferative activity against human TC-32 cells assessed as reduction in cell proliferation incubated for 72 hrs by WST-1 assay; assay type: functional, cell-based; details: TC-32, 72 h
MDA-MB-231 [16] = experiment: Antiproliferative activity against human MDA-MB-231 cells assessed as reduction in cell proliferation incubated for 72 hrs by WST-1 assay; assay type: functional, cell-based; details: MDA-MB-231, 72 h
U-87 MG = experiment: Antiproliferative activity against human U87 cells assessed as reduction in cell viability incubated for 48 hrs by MTT assay; assay type: functional, cell-based, U-87MG ATCC
U-251 = experiment: Antiproliferative activity against human U-251 cells assessed as reduction in cell viability incubated for 48 hrs by MTT assay; assay type: functional, cell-based; details: U-251, 48 h
CT26 [17] = experiment: Antitumor activity against mouse CT26 cells assessed as reduction in cell viability incubated for 4 hrs by MTT assay; assay type: functional, cell-based; details: CT26, 4 h
CT26 [18] = experiment: Antitumor activity against mouse CT26 cells assessed as tumor growth inhibition incubated for 4 hrs by MTT assay relative to control; assay type: functional; set-up: scale not given: the % may be the effect or the level left
MCF7 [19] = experiment: Antitumor activity against human MCF7 cells assessed as inhibition of cell growth at 1000 ug measured after 48 hrs by spectrophotometric analysis relative to control; assay type: functional; set-up: scale not given: the % may be the effect or the level left; details: dose 1000 µg
MCF7 [20] = experiment: Antitumor activity against human MCF7 cells assessed as increase in LDH level at 1000 ug relative to control; assay type: functional; details: dose 1000 µg
A549 = experiment: Anticancer activity against human A549 cells assessed as inhibition of cell proliferation measured after 48 hrs by MTT assay; assay type: functional, cell-based; details: A549, 48 h
HepG2 = experiment: Anticancer activity against human HepG2 cells assessed as inhibition of cell proliferation measured after 48 hrs by MTT assay; assay type: functional, cell-based; details: HepG2, 48 h
MCF7 [21] = experiment: Anticancer activity against human MCF7 cells assessed as inhibition of cell growth incubated for 48 hrs by MTT assay; assay type: functional, cell-based; details: MCF7, 48 h
MCF7 [22] = experiment: Cytotoxicity against human MCF7 cells assessed as reduction in cell viability by MTT assay; assay type: functional, cell-based
[23] = Antioxidant activity assessed as DPPH radical scavenging activity; assay type: functional
[24] = Antioxidant activity assessed as ABTS radical scavenging activity; assay type: functional
MCF7 [25] = experiment: Cytotoxicity against human MCF7 cells assessed as reduction in cell growth incubated for 96 hrs by MTT assay; assay type: functional, cell-based; details: MCF7, 96 h
MDA-MB-231 [26] = experiment: Cytotoxicity against human MDA-MB-231 cells assessed as reduction in cell viability incubated for 24 hrs by MTT assay; assay type: functional, cell-based; details: MDA-MB-231, 24 h
MDA-MB-468 = experiment: Cytotoxicity against human MDA-MB-468 cells assessed as cell viability measured after 3 days by Cell Titer Blue assay; assay type: functional, cell-based; details: MDA-MB-468, 72 h
SK-BR-3 = experiment: Cytotoxicity against human SK-BR-3 cells assessed as cell growth inhibition incubated for 48 hrs by WST-1 assay; assay type: functional, cell-based; details: SK-BR-3, 48 h
T47D [27] = experiment: Cytotoxicity against human T47D cells assessed as reduction in cell viability after 48 hrs by MTT assay; assay type: functional, cell-based
[28] = Cytotoxicity in human MCF-10A cells assessed as reduction in cell viability incubated for 72 hrs by MTT assay; assay type: toxicity, cell-based

c1cnc2c(c1)Nc1ccncc1S2
IC50 (MCF7 [1]): 8.3 µM | IC50 (SNB-19 [2]): 0.58 µM | IC50 (TC-32 [3]): 0.72 µM | IC50 (MCF7 [4]): 0.46 µM | IC50 at 72 h [5]: 38.6 µM

CN1CCN(CC#CCN2c3ccncc3Sc3ccncc32)CC1
IC50 (TC-32 [6]): 35 µM | IC50 (SNB-19 [7]): 21.2 µM | IC50 (T47D [8]): 9.6 µM

COc1ccc(-n2cc(CN3c4ccccc4Sc4ccccc43)nn2)c([N+](=O)[O-])c1
IC50 (MKN-28): 2.7 µM | IC50 (MGC-803): 1.2 µM | IC50 (MKN-45): 3.5 µM

CN(C)CCN1CCN(CCCN2c3ccccc3Sc3ccc(C(F)(F)F)cc32)CC1
IC50 (MCF7 [9]): 0.42 µM

CCCCCN1c2ccccc2Sc2cc(/C=C(\C#N)C(N)=O)ccc21
IC50 (SW1990): 13.3 µM | IC50 (ASPC1): 25.3 µM | IC50 [10]: 37.3 µM

CCN(C)CC#CCN1c2ccncc2Sc2ncccc21
IC50 (SNB-19 [11]): 0.11 µM | IC50 (TC-32 [12]): 1.53 µM | IC50 (MDA-MB-231 [13]): 2.81 µM

C#CCN1c2ncccc2Sc2cccnc21
IC50 (SNB-19 [14]): 3.85 µM | IC50 (TC-32 [15]): 3.37 µM | IC50 (MDA-MB-231 [16]): 14.1 µM

CSc1ccc2c(c1)N(CCCn1ccc(=O)[nH]c1=O)c1ccccc1S2
IC50 (MCF7 [1]): 1.35 µM

O=[N+]([O-])c1ccccc1S(=O)(=O)N1c2ccccc2Sc2ccc(Cl)cc21
IC50 (U-87 MG): 5.12 µM | IC50 (U-251): 9.29 µM

CCN(CC)CC#CCN1c2ccncc2Sc2ncccc21
IC50 (SNB-19 [11]): 0.11 µM | IC50 (TC-32 [12]): 0.54 µM | IC50 (MDA-MB-231 [13]): 6.32 µM

COCCOCCOCCOCCOCCOCCOCCOCCOCCOCCOCCOC(=O)CN1c2ccccc2Sc2ccccc21
IC50 (CT26 [17]): 286 µM | Activity (CT26 [18]): 92%

CN1c2ccccc2Sc2cc(/C=N/NC(=O)Cn3c4ccccc4c4ccccc43)ccc21
Activity (MCF7 [19]): 48% | Activity (MCF7 [20]): 48%

COc1ccc(N/N=C2/SC(N/N=C(\C)c3ccc4c(c3)Nc3ccccc3S4)=NC2=O)cc1
IC50 (A549): 5.37 µM | IC50 (HepG2): 5.37 µM

COCCSc1nnc(CN2c3ccccc3Sc3ccc(Cl)cc32)s1
IC50 (MCF7 [21]): 3.45 µM

C/C(=N\c1ccc(/N=N/c2ccccc2)cc1)c1ccc2c(c1)Nc1ccccc1S2
IC50 (MCF7 [22]): 34.6 µM | IC50 [23]: 37.3 µM | IC50 [24]: 41.1 µM

CCN1c2ccc(-c3ccccc3)cc2Sc2cc(-c3nnc4ccccn34)ccc21
IC50 (MCF7 [25]): 6.2 µM | IC50 (MDA-MB-231 [26]): 19.4 µM | IC50 (MDA-MB-468): 9.7 µM | IC50 (SK-BR-3): 31.5 µM | IC50 (T47D [27]): 11.7 µM | IC50 at 72 h [28]: 13.4 µM

From ChEMBL document CHEMBL5344416, “Phenothiazines as anti-cancer agents: SAR overview and synthetic strategies” (Eur J Med Chem, 2023)
